According to US4341779A, “Esters of amidinepenicillins” (priority 1978, dated 1982):
Where a name gives a salt, the structure may show the parent alone. Read-outs that look alike come from different tables or passages of the source.

How the values were obtained:
[1] = rat, in vivo
[2] = test system: arterial pressure; assay: effect onto the arterial pressure of experimental animals; format: in vivo; conditions: on the contrary to Pivmecillinam
[3] = test system: mice; assay: LD50 after administration per os in mice
[4] = comparative levels of 6-/N,N-1',6'-hexyleneformamidine/-penicillanic acid in blood serum, livers, lungs and kidneys of rats after per os administration (Table 2); format: in vivo
Excerpt: The results of the measurements, expressed in μg/ml are specified in Table 2.

[5] = in vivo; conditions: mouse, po
[6] = levels of free acid in serum and organs of rats after per os administration of the aminopropyl dihydrochloride; format: in vivo
[7] = LD50 after administration per os in mice; conditions: mouse, in vivo, po, LD50, mice, per os

Structure (SMILES) | effect onto the arterial pressure [2] | level of free acid in blood serum ([1]; 5 min) | level of free acid in blood serum ([1]; 10 min) | level of free acid in blood serum ([1]; 15 min) | level of free acid in blood serum ([1]; 30 min) | level of free acid in blood serum ([1]; 45 min) | level of free acid in blood serum ([1]; 60 min) | level of free acid in blood serum ([1]; 120 min) | level of free acid in blood serum ([1]; 180 min) | level of free acid in blood serum ([1]; 240 min) | level of free acid in blood serum ([1]; 300 min) | level of free acid in blood serum ([1]; 360 min) | further results
CC1(C)S[C@@H]2[C@H](N=CN3CCCCCC3)C(=O)N2[C@H]1C(=O)O [6-/N,N-1', 6'-hexyleneformamidine/-penicillanic acid, reference compound] |  |  |  |  |  |  |  |  |  |  |  |  | level of free acid in blood serum ([1]; po, 5 min): 0.3 µg/mL; level of free acid in blood serum ([1]; po, 10 min): 0.9 µg/mL; level of free acid in blood serum ([1]; po, 0.25 h): 1.7 µg/mL; level of free acid in blood serum ([1]; po, 0.5 h): 1.8 µg/mL; level of free acid in blood serum ([1]; po, 0.75 h): 1.9 µg/mL; level of free acid in blood serum ([1]; po, 1 h): 1.9 µg/mL; level of free acid in blood serum ([1]; po, 2 h): 1.6 µg/mL; level of free acid in blood serum ([1]; po, 3 h): 1.3 µg/mL; level of free acid in blood serum ([1]; po, 4 h): 0.8 µg/mL; level of free acid in blood serum ([1]; po, 5 h): 0.6 µg/mL; level of free acid in blood serum ([1]; po, 6 h): 0.5 µg/mL
CC(=O)COC(=O)[C@@H]1N2C(=O)[C@@H](N=CN3CCCCCC3)[C@H]2SC1(C)C [Hydrochloride of methylacetic ester of 6-/N,N1', 6'-hexylene] [hydrochloride of methylacetic ester of 6-/N, N-1', 6'-hexyleneformamidine/-penicillanic acid] | no effect | 12.9 µg/mL | 14.3 µg/mL | 16.4 µg/mL | 16.1 µg/mL | 18.9 µg/mL | 14.4 µg/mL | 9.1 µg/mL | 2.1 µg/mL | 1 µg/mL | 0.8 µg/mL | 0.1 µg/mL | LD50 ([3]; mice, per os, listed as hydrochloride of said ester): over 5 g/kg of the body weight
CC(=O)COC(=O)[C@@H]1N2C(=O)[C@@H](N=CN3CCCCCC3)[C@H]2SC1(C)C [Methylacetic ester of 6-N,N-1', 6'-hexyleneformamidine/-peni] [methylacetic ester of 6-/N,N-1', 6'-hexyleneformamidine/-penicillanic acid] | no effect | 29.3 µg/mL | 35 µg/mL | 42.7 µg/mL | 21.1 µg/mL | 21.2 µg/mL | 16.9 µg/mL | 4.9 µg/mL | 1.6 µg/mL | 0.8 µg/mL | 0.6 µg/mL | 0.3 µg/mL | maximum level in kidneys relative to equivalent dose of Pivmecillinam ([4]; kidneys): three times; maximum level in the liver relative to equivalent dose of Pivmecillinam ([4]; liver): over two times higher; maximum levels in the lungs, ester and Pivmecillinam compared ([4]; lungs, equivalent doses): approximate ones; levels of free acid in the serum, comparison of preparations [1]: highest levels; maximum serum level relative to equivalent dose of Pivmecillinam [1]: over two times higher; maximum serum level relative to equivalent dose of corresponding free acid [1]: over twenty times higher; toxicity compared with Pivascillinam ([3]; compared with Pivascillinam): toxicity lower than that of Pivascillinam
CC(C)(C)C(=O)OCOC(=O)[C@@H]1N2C(=O)[C@@H](/N=C/N3CCCCCC3)[C@H]2SC1(C)C [Pivmecillinam, hydrochloride of pivaloyl-oxymethyl ester of 6-/N,N-1',6'-hecylaneformamidine/-penicillanicacid, reference compound] |  | 6.3 µg/mL | 12.7 µg/mL | 15.5 µg/mL | 19.2 µg/mL | 16.3 µg/mL | 14.7 µg/mL | 7.9 µg/mL | 2.1 µg/mL | 1.8 µg/mL | 1.5 µg/mL | 1.1 µg/mL | LD50 [5]: 2600 mg/kg
CC(=O)COC(=O)[C@@H]1N2C(=O)[C@@H](N=CN3CCC(CCCN)CC3)[C@H]2SC1(C)C [dihydrochloride of ester methylacetic of 6-{N,N-[3'-(γ-aminopropyl)-1',5'-pentileneformamidine]}-penicillanicacid] |  |  |  |  |  |  |  |  |  |  |  |  | levels of free acid in serum and organs relative to equivalent dose of corresponding free acid [6]: multiply higher
CC(=O)COC(=O)[C@@H]1N2C(=O)[C@@H](N=CN3CCCCCC3)[C@H]2SC1(C)C [methylacetic ester of 6-/N,N-1', 6'-hexyleneformamidine/-penicillanic acid] |  |  |  |  |  |  |  |  |  |  |  |  | LD50 [7]: > 3000 mg/kg
